Data reported in US10781224B2, “Bis(oxymethyl)phosphinic acid and biogenic metal salts thereof as regulators of plant growth and development” (priority 2016, dated 2020).

System: corn (Krasnodar 385 MV variety)
Experiment: Corn seed treatment with BHMPA salts: germinating power
Assay type: in vivo
Experimental: Experimental versions—soaking seeds in BHMPA solutions and solutions of BHMPA Ca, Mg, Na, Co, Mn, Cu, and Zn salts at 1·10^−6-1·10^−12% concentrations (doses). The studies were conducted in laboratory in Petri dishes; seed bed—two layers of filter paper. 50 seeds soaked in water (control) and in the solutions of the tested compounds (experimental) were placed into each dish. Wheat, corn, and rice seeds were exposed for one hour.
Seed germination energy and rate were calculated in percent as an arithmetic mean of the four experimental results (germination energy on the 4th day, wheat germination on the 8th day, rice and corn germination—on the 7th day). Germination was determined based on the germinating power indicators (length of the roots and sprouts and their wet and dry mass per 100 shoots).
The effect of pre-sowing seed treatment with the claimed BHMPA salts of biogenic metals was studied on winter wheat (Vershin variety), corn (Krasnodar 385 MV variety), and rice (Diamant variety).
The above data describe the seed viability only at the initial stage of germination, while the germination ability at the later stage of germination is defined by the initial germinating power. The method for the determination of the germinating power comprises measuring the height of the sprouts and primary roots, as well as the biomass and the dry mass thereof per 100 seedlings. [M. A. Kartuzova. Initial Germinating Power as Method of Biological Assessment of Seed Quality. Selection and Seed Farming, #2, 1953].

[1] = corn seeds, solution concentration 1 · 10^−6%, magnesium salt of BHMPA
[2] = corn seeds, solution concentration 1 · 10^−7%, magnesium salt of BHMPA
[3] = corn seeds, solution concentration 1 · 10^−8%, magnesium salt of BHMPA
[4] = corn seeds, solution concentration 1 · 10^−9%, magnesium salt of BHMPA
[5] = corn seeds, solution concentration 1 · 10^−10%, magnesium salt of BHMPA
[6] = corn seeds, solution concentration 1 · 10^−11%, magnesium salt of BHMPA
[7] = corn seeds, solution concentration 1 · 10^−12%, magnesium salt of BHMPA
[8] = corn, over the tested concentrations

O=P([O-])(CO)CO.O=P([O-])(CO)CO.[Mg+2] [Mg-salt, Magnesium BHMPA Salt]
optimum concentration for treating corn seeds before sowing (corn): 1·10^−9% | Length, root [1]: 6.4 cm | Length, root, + % to control [1]: 21% | Length, sprout [1]: 2.9 cm | Length, sprout, + % to control [1]: −12% | Mass, dry, root [1]: 1.60 g/100 plantlings | Mass, dry, root, + % to control [1]: 9.5% | Mass, dry, sprout [1]: 1.07 g/100 plantlings | Mass, dry, sprout, + % to control [1]: 11% | Mass, wet, root [1]: 10.29 g/100 plantlings | Mass, wet, root, + % to control [1]: 17% | Mass, wet, sprout [1]: 7.17 g/100 plantlings | Mass, wet, sprout, + % to control [1]: 12% | Length, root [2]: 7.0 cm | Length, root, + % to control [2]: 32% | Length, sprout [2]: 3.3 cm | Length, sprout, + % to control [2]: 0% | Mass, dry, root [2]: 1.81 g/100 plantlings | Mass, dry, root, + % to control [2]: 24% | Mass, dry, sprout [2]: 1.12 g/100 plantlings | Mass, dry, sprout, + % to control [2]: 17% | Mass, wet, root [2]: 10.86 g/100 plantlings | Mass, wet, root, + % to control [2]: 24% | Mass, wet, sprout [2]: 7.93 g/100 plantlings | Mass, wet, sprout, + % to control [2]: 23.5% | Length, root [3]: 8.5 cm | Length, root, + % to control [3]: 60% | Length, sprout [3]: 3.5 cm | Length, sprout, + % to control [3]: 6% | Mass, dry, root [3]: 1.91 g/100 plantlings | Mass, dry, root, + % to control [3]: 31% | Mass, dry, sprout [3]: 1.19 g/100 plantlings | Mass, dry, sprout, + % to control [3]: 24% | Mass, wet, root [3]: 11.64 g/100 plantlings | Mass, wet, root, + % to control [3]: 33% | Mass, wet, sprout [3]: 8.89 g/100 plantlings | Mass, wet, sprout, + % to control [3]: 38% | Length, root [4]: 9.1 cm | Length, sprout [4]: 3.8 cm | Mass, dry, root [4]: 2.02 g/100 plantlings | Mass, dry, root, + % to control [4]: 38% | Mass, dry, sprout [4]: 1.27 g/100 plantlings | Mass, dry, sprout, + % to control [4]: 32% | Mass, wet, root [4]: 12.42 g/100 plantlings | Mass, wet, root, + % to control [4]: 42% | Mass, wet, sprout [4]: 10.35 g/100 plantlings | Mass, wet, sprout, + % to control [4]: 61% | Length, root [5]: 8.3 cm | Length, root, + % to control [5]: 57% | Length, sprout [5]: 3.6 cm | Length, sprout, + % to control [5]: 9% | Mass, dry, root [5]: 1.96 g/100 plantlings | Mass, dry, root, + % to control [5]: 34% | Mass, dry, sprout [5]: 1.20 g/100 plantlings | Mass, dry, sprout, + % to control [5]: 25% | Mass, wet, root [5]: 11.86 g/100 plantlings | Mass, wet, root, + % to control [5]: 35% | Mass, wet, sprout [5]: 8.62 g/100 plantlings | Mass, wet, sprout, + % to control [5]: 34% | Length, root [6]: 8.1 cm | Length, root, + % to control [6]: 53% | Length, sprout [6]: 3.0 cm | Length, sprout, + % to control [6]: −9% | Mass, dry, root [6]: 1.81 g/100 plantlings | Mass, dry, root, + % to control [6]: 24% | Mass, dry, sprout [6]: 1.10 g/100 plantlings | Mass, dry, sprout, + % to control [6]: 14.5% | Mass, wet, root [6]: 10.04 g/100 plantlings | Mass, wet, root, + % to control [6]: 14% | Mass, wet, sprout [6]: 8.18 g/100 plantlings | Mass, wet, sprout, + % to control [6]: 27% | Length, root [7]: 7.8 cm | Length, root, + % to control [7]: 47% | Length, sprout [7]: 2.8 cm | Length, sprout, + % to control [7]: −15% | Mass, dry, root [7]: 1.57 g/100 plantlings | Mass, dry, root, + % to control [7]: 7.5% | Mass, dry, sprout [7]: 0.94 g/100 plantlings | Mass, dry, sprout, + % to control [7]: −2% | Mass, wet, root [7]: 9.18 g/100 plantlings | Mass, wet, root, + % to control [7]: 5% | Mass, wet, sprout [7]: 7.04 g/100 plantlings | Mass, wet, sprout, + % to control [7]: 10% | Length, root, + % to control (corn, 1·10^−9% solution): 72% | Length, sprout, + % to control (corn, 1·10^−9% solution): 15% | Mass, dry, root, + % to control (corn, 1·10^−9% solution): 38% | Mass, dry, sprout, + % to control (corn, 1·10^−9% solution): 32% | Mass, wet, root, + % to control (corn, 1·10^−9% solution): 42% | Mass, wet, sprout, + % to control (corn, 1·10^−9% solution): 61% | increase of germinating power of the roots [8]: 21%-72% | sprout length changes [8]: −15% to +15%
